Results from US20090227601A1, “Bradykinin 1 Receptor Antagonists” (Amgen Inc., priority 2005, published 2009).
Several values for one entry are separate records, joined by “and”; a condition that tells them apart may be missing. Identical values can stand only once. Counter-ions that a name gives are not always drawn.

Target: T1, hB2 receptor (Homo sapiens, UniProt P30411)
T1 construct: host or cells: CHO-K1
T1 sequence (P30411 1-391): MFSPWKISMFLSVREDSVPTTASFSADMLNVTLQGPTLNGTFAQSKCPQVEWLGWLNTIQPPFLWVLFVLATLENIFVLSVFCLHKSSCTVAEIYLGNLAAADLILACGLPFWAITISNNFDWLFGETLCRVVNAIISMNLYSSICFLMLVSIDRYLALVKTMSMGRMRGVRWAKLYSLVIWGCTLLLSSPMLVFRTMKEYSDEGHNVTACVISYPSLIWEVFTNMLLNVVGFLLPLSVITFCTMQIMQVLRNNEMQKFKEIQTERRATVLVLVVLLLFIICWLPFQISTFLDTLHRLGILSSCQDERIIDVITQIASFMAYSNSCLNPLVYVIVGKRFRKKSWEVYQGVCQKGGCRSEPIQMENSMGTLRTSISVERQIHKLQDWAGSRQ
Test: In vitro Assay of hB2 Receptor Function using Calcium Flux
Type: cell-based
Details: recombinant CHO cells, antagonist IC50 against agonist at EC80
Experimental: In vitro Assay of hB2 Receptor Function using Calcium Flux The intracellular calcium flux induced by hB2 receptor activation was analyzed using an hB2 recombinant cell line (CHO-K1) purchased from PerkinElmer (Catalog Number: RBHB2C000EA) on a fluorometric imaging plate reader (FLIPR). […] Culture medium was changed every other day. 24 h prior to the FLIPR assay, the hB2/CHO cells were washed once with PBS (Invitrogen) and 10 mL of Versene (1:5000, Invitrogen, Cat# 15040-066) was added to each flask. After 5 min incubation at 37° C., Versene was removed and cells were detached from the flask and resuspended in culture medium. Cells were counted and 25,000 cells/well were plated in 96-well black-sided clear bottom assay plates (Costar #3904). Cells were incubated in a 37° C. CO2 incubator overnight. The media was aspirated from the cells and replaced with 65 μL of dye-loading buffer. The loading buffer was prepared by diluting a stock solution of 0.5 mM Fluo-4 AM (Molecular Probes, dissolved in DMSO containing 10% [w/v] pluronic acid) to a concentration of 1 μM in Clear Dulbecco's Modified Eagle Medium (DMEM) containing 0.1% BSA, 20 mM HEPES, and 2.5 mM probenecid. The cells were dye-loaded for 1 h at RT. The excess dye was removed by washing the cells 2× with assay buffer. The assay buffer consists of Hank's Balanced Salt Solution (HBSS) containing 20 mM HEPES, 0.1% BSA, and 2.5 mM probenecid. After the wash cycles, a volume of 100 μL was left in each well, and the plate was ready to be assayed in the FLIPR System. […] The cell plate and the compound plates were loaded onto the FLIPR and during the assay, fluorescence readings are taken simultaneously from all 96 wells of the cell plate. Ten 1-second readings were taken to establish a stable baseline for each well, then 25 μL from the B1 antagonist plate was rapidly (50 μL/sec.) added. The fluorescence signal was measured in 1-second (1 min) followed by 6-second (2 min) intervals for a total of 3 min to determine if there is any agonist activity with the compounds.

Row | Molecule | IC50
1 | 2-((2R)-1-((4-methylphenyl)sulfonyl)-3-oxo-1,2,3,4-tetrahydro-2-pyrazinyl)-N-((1R,2R,4R)-1,7,7-trimethylbicyclo[2.2.1]hept-2-yl)acetamide; and 2-((2R)-1-((4-methylphenyl)sulfonyl)-3-oxo-1,2,3,4-tetrahydro-2-pyrazinyl)-N-((1R,2S,4R)-1,7,7-trimethylbicyclo[2.2.1]hept-2-yl)acetamide [T-1-2] | 0.092 µM
2 | N-((4S)-1-cyclopropyl-3,3-dimethyl-4-piperidinyl)-2-((2R)-1-((4-methylphenyl)-sulfonyl)-3-oxo-1,2,3,4-tetrahydro-2-pyrazinyl)acetamide; and N-((4R)-1-cyclopropyl-3,3-dimethyl-4-piperidinyl)-2-((2R)-1-((4-methylphenyl)-sulfonyl)-3-oxo-1,2,3,4-tetrahydro-2-pyrazinyl)acetamide [T-1-45] | 0.001 µM
3 | Cc1ccc(S(=O)(=O)N2C=CNC(=O)[C@H]2CC(=O)NC2CCC(NC3CC3)CC2(C)C)cc1 (mixture of isomers) [T-1-43] | 0.014 µM
4 | Cc1ccc(S(=O)(=O)N2C=CNC(=O)[C@H]2CC(=O)N(C)C2CCN(C)CC2)cc1 [T-2-1, 2-((2R)-1-((4-methylphenyl)sulfonyl)-3-oxo-1,2,3,4-tetrahydro-2-pyrazinyl)-N-methyl-N-(1-methyl-4-piperidinyl)acetamide] | 0.003 µM
5 | Cc1ccc(S(=O)(=O)N2C=CNC(=O)[C@H]2CC(=O)NC2CCC(N3CCCC(F)C3)CC2(C)C)cc1 (stereo partly drawn) [T-1-41, N-(4-(3-fluoro-1-piperidinyl)-2,2-dimethylcyclohexyl)-2-((2R)-1-((4-methyl-phenyl)sulfonyl)-3-oxo-1,2,3,4-tetrahydro-2-pyrazinyl)acetamide] | 0.002 µM
6 | COc1ccc(CC2CCCN2C(=O)C[C@@H]2C(=O)NC=CN2S(=O)(=O)c2ccc(C)cc2)cc1 (stereo partly drawn) [T-3-47, (3R)-3-(2-(2-RS-((4-(methyloxy)phenyl)methyl)-1-pyrrolidinyl)-2-oxoethyl)-4-((4-methylphenyl)sulfonyl)-3,4-dihydro-2(1H)-pyrazinone] | 0.39 µM
7 | 1,1-dimethylethyl (3R)-3-((((2R)-1-((4-methylphenyl)sulfonyl)-3-oxo-1,2,3,4-tetrahydro-2-pyrazinyl)acetyl)amino)-1-piperidinecarboxylate; and 1,1-dimethylethyl (3S)-3-((((2R)-1-((4-methylphenyl)sulfonyl)-3-oxo-1,2,3,4-tetrahydro-2-pyrazinyl)acetyl)amino)-1-piperidinecarboxylate [T-1-8] | 0.17 µM
8 | Cc1ccc(S(=O)(=O)N2C=CNC(=O)[C@H]2CC(=O)NC2CCN(c3ncccn3)CC2)cc1 [T-1-7, 2-((2R)-1-((4-methylphenyl)sulfonyl)-3-oxo-1,2,3,4-tetrahydro-2-pyrazinyl)-N-(1-(2-pyrimidinyl)-4-piperidinyl)acetamide] | 0.7 µM
9 | Cc1ccc(S(=O)(=O)N2C=CNC(=O)[C@H]2CC(=O)NC2CC3CCC(C2)N3C)cc1 (stereo partly drawn) [T-1-34, N-((3-endo)-8-methyl-8-azabicyclo[3.2.1]oct-3-yl)-2-((2R)-1-((4-methylphenyl)-sulfonyl)-3-oxo-1,2,3,4-tetrahydro-2-pyrazinyl)acetamide; and N-((3-exo)-8-methyl-8-azabicyclo[3.2.1]oct-3-yl)-2-((2R)-1-((4-methylphenyl)-sulfonyl)-3-oxo-1,2,3,4-tetrahydro-2-pyrazinyl)acetamide] | 0.14 µM
10 | CC(=O)N1CCC(NC(=O)C[C@@H]2C(=O)NC=CN2S(=O)(=O)c2ccc(C)cc2)C(C)(C)C1 (stereo partly drawn) [T-1-18, N-(1-acetyl-3,3-dimethyl-4-piperidinyl)-2-((2R)-1-((4-methylphenyl)sulfonyl)-3-oxo-1,2,3,4-tetrahydro-2-pyrazinyl)acetamide] | 0.015 µM

The remaining lines, values ahead:

Row | IC50 | Molecule
11 | 0.00121 µM | Cc1ccc(S(=O)(=O)N2C=CNC(=O)[C@H]2CC(=O)NC2CCN(Cc3ccncc3)CC2(C)C)cc1 (mixture of isomers) [T-1-25, N-((4R)-3,3-dimethyl-1-(4-pyridinylmethyl)-4-piperidinyl)-2-((2R)-1-((4-methylphenyl)sulfonyl)-3-oxo-1,2,3,4-tetrahydro-2-pyrazinyl)acetamide; and N-((4S)-3,3-dimethyl-1-(4-pyridinylmethyl)-4-piperidinyl)-2-((2R)-1-((4-methyl-phenyl)sulfonyl)-3-oxo-1,2,3,4-tetrahydro-2-pyrazinyl)acetamide]
12 | 0.15 µM and 0.43 µM | Cc1ccc(S(=O)(=O)N2C=CNC(=O)[C@H]2CC(=O)NC2CCN(C(=O)OC(C)(C)C)CC2(C)C)cc1 (mixture of isomers) [T-1-15, 1,1-dimethylethyl (4R)-3,3-dimethyl-4-((((2R)-1-((4-methylphenyl)sulfonyl)-3-oxo-1,2,3,4-tetrahydro-2-pyrazinyl)acetyl)amino)-1-piperidinecarboxylate; and 1,1-dimethylethyl (4S)-3,3-dimethyl-4-((((2R)-1-((4-methylphenyl)sulfonyl)-3-oxo-1,2,3,4-tetrahydro-2-pyrazinyl)acetyl)amino)-1-piperidinecarboxylate]
13 | 1 µM | Cc1ccc(S(=O)(=O)N2C=CNC(=O)[C@H]2CC(=O)N2CCCC2c2ccc(Cl)cc2)cc1 (stereo partly drawn) [T-3-3, (3R)-3-(2-(2-(4-chlorophenyl)-1-pyrrolidinyl)-2-oxoethyl)-4-((4-methylphenyl)-sulfonyl)-3,4-dihydro-2(1H)-pyrazinone]
14 | 0.2 µM | Cc1ccc(S(=O)(=O)N2C=CNC(=O)[C@H]2CC(=O)NC2CCCCC2C2CCCCC2)cc1 (stereo partly drawn) [T-1-40, N-1,1′-bi(cyclohexyl)-2-yl-2-((2R)-1-((4-methylphenyl)sulfonyl)-3-oxo-1,2,3,4-tetrahydro-2-pyrazinyl)acetamide]
15 | 0.0051 µM | Cc1cc(S(=O)(=O)N2C=CNC(=O)[C@H]2CC(=O)N2CCC3(CCN(C4CC4)C3)C2)c(C)cc1Cl (stereo partly drawn) [T-3-38, (3R)-4-((4-chloro-2,5-dimethylphenyl)sulfonyl)-3-(2-(7-cyclopropyl-2,7-diazaspiro[4.4]non-2-yl)-2-oxoethyl)-3,4-dihydro-2(1H)-pyrazinone]
16 | > 4 µM | Cc1ccc(S(=O)(=O)N2C=CNC(=O)[C@H]2CC(=O)N2CCC(NC(=O)c3ccccc3)CC2)cc1 [T-3-40, N-(1-(2-((2R)-1-((4-methylphenyl)sulfonyl)-3-oxo-1,2,3,4-tetrahydro-2-pyrazinyl)acetyl)-4-piperidinyl)benzamide]
17 | 0.047 µM | Cc1ccc(S(=O)(=O)N2C=CNC(=O)[C@H]2CC(=O)N[C@H]2CC[C@@H](N)CC2)cc1 [T-1-31, N-(cis-4-aminocyclohexyl)-2-((2R)-1-((4-methylphenyl)sulfonyl)-3-oxo-1,2,3,4-tetrahydro-2-pyrazinyl)acetamide]
18 | 0.0008 µM | 2-((2R)-1-((2,3-dichlorophenyl)sulfonyl)-3-oxo-1,2,3,4-tetrahydro-2-pyrazinyl)-N-((4S)-3,3-dimethyl-4-piperidinyl)acetamide; and 2-((2R)-1-((2,3-dichlorophenyl)sulfonyl)-3-oxo-1,2,3,4-tetrahydro-2-pyrazinyl)-N-((4R)-3,3-dimethyl-4-piperidinyl)acetamide [T-1-47]
19 | 0.001 µM | COCCN1CC[C@@H](NC(=O)C[C@@H]2C(=O)NC=CN2S(=O)(=O)c2ccc(C)cc2)C(C)(C)C1 [T-1-120, N-((4R)-3,3-dimethyl-1-(2-(methyloxy)ethyl)-4-piperidinyl)-2-((2R)-1-((4-methylphenyl)sulfonyl)-3-oxo-1,2,3,4-tetrahydro-2-pyrazinyl)acetamide]
20 | 0.032 µM | Cc1cc(S(=O)(=O)N2C=CNC(=O)[C@H]2CC(=O)N2CCCC(N(C)C3CC3)CC2)c(C)cc1Cl (mixture of isomers) [T-3-28, (3R)-4-((4-chloro-2,5-dimethylphenyl)sulfonyl)-3-(2-((4R/S)-4-(cyclopropyl(methyl)amino)-1-azepanyl)-2-oxoethyl)-3,4-dihydro-2(1H)-pyrazinone trifluoroacetic acid salt]
21 | 2.3 µM | Cc1ccc(S(=O)(=O)N2C=CNC(=O)[C@H]2CC(=O)NC2CCC(NCC(C)(C)C)CC2(C)C)cc1 (mixture of isomers) [T-1-44]
22 | 0.13 µM | COc1ccc(C2CN(C(=O)C[C@@H]3C(=O)NC=CN3S(=O)(=O)c3ccc(C)cc3)CCS2)cc1 (stereo partly drawn) [T-3-2, (3R)-3-(2-(2-(4-(methyloxy)phenyl)-4-thiomorpholinyl)-2-oxoethyl)-4-((4-methyl-phenyl)sulfonyl)-3,4-dihydro-2(1H)-pyrazinone]
